In patent publication US20190328753A1, “COMPOSITIONS AND METHODS FOR TREATING OCULAR DISEASES” (priority 2015, published 2019):
“Also recorded” adds a separate entry of the source.

Legend:
ELOVL4 gene expression = assay: RT-PCR of ELOVL4 gene expression in HTCE cells (Example 9); type: cell-based, Human; conditions: 7th day; for ELOVL4 gene expression, induction: normalized
Procedure: HTCE cells were cultured in 6 well plates and grown to about 30% confluence. The cells were then treated with different dilutions of a 0.025 mg/ml Spironolactone eye drop formulation (i.e. 50×, 100×, 500×, 1000×, and 5000×, corresponding to 0.0005 mg/ml, 0.00025 mg/ml, 0.00005 mg/ml, 0.000025 mg/ml, and 0.000005 mg/ml). The medium with different concentrations of Spironolactone was changed every 2 days. On the 7th day, the cells were collected, and the RNA was extracted and subject to RT-PCR analysis for gene expression of ELOVL4, an enzyme involved in the biosynthesis of fatty acids (particularly very long chain fatty acids (VLCFAs)).

[1] = according to the literature; cited from earlier work
Corneal epithelial cells = assay: In vitro toxicity / cell morphology in corneal epithelial cells (Example 7); type: cell-based
Procedure: Corneal epithelial cells were cultured in vitro to about 30% confluence and treated with various dilutions of a 0.025 mg/mL spironolactone eye drop formulation (i.e. 50×, 100×, 500×, 1000×, and 5000×, corresponding to 0.0005 mg/ml, 0.00025 mg/ml, 0.00005 mg/ml, 0.000025 mg/ml, and 0.000005 mg/ml). The cell medium with spironolactone was changed every two days. On the seventh day, the cells were stained for lipids with Oil Red O.
Toxicity to cells was also taken into account. Toxicity in the context of this disclosure refers to any amount of cell death upon exposure to the composition. Little to no toxicity or relatively no toxicity refers to some amount of cell death to no cell death upon exposure to the composition. Alternatively or additionally, the morphology should look phenotypically normal for the cells. Toxicity can be measured quantitatively or qualitatively, in vivo or in vitro. Standard assays, such as an LDH (lactate dehydrogenase) assay, can be used to quantify toxicity of the compositions and to determine a TC50 concentration, i.e., a concentration that results in cell death for 50% of the cells upon exposure of the cells to that concentration. […] As such, a concentration of 0.025 mg/cc or lower appears to be safe. […] Compositions with lower amounts of active agent (e.g., 0.0000025 mg/cc) may be useful for maintaining a patient's condition, without subjecting the patient to long-term toxicity, for example, once the patient has been stabilized by treatment for some amount of time with a higher concentration.

CC(=O)SC1CC2=CC(=O)CCC2(C)C2CCC3(C)C(CCC34CCC(=O)O4)C12 (stereo not drawn) [spironolactone, 7α-acetylthio-3-oxo-17α-pregn-4-ene-21,17-carbolactone]
ELOVL4 gene expression, induction (ELOVL4 gene expression; 0.00025 mg/ml (100× dilution)): approximately 2 fold
ELOVL4 gene expression, induction (ELOVL4 gene expression; 0.0005 mg/ml (50× dilution)): approximately 4.5 fold
ELOVL4 gene expression (ELOVL4 gene expression; remaining treatment groups (0.00005, 0.000025, 0.000005 mg/ml)): no change relative to control
solubility in water [1]: practically insoluble in water
in vitro toxicity (Corneal epithelial cells; 0.025 mg/ml): some in vitro toxicity
in vitro toxicity / cell morphology (Corneal epithelial cells; 100× dilution (0.00025 mg/ml)): non confluence and some relative toxicity
in vitro toxicity / cell morphology (Corneal epithelial cells; 500× dilution (0.00005 mg/ml)): confluent nontoxic cell morphology
in vitro toxicity / cell morphology (Corneal epithelial cells; 1000× dilution (0.000025 mg/ml)): no in vitro toxicity; also recorded: confluent nontoxic cell morphology
in vitro toxicity / cell morphology (Corneal epithelial cells; 5000× dilution (0.000005 mg/ml)): confluent nontoxic cell morphology
